Twelve molecules from ChEMBL document CHEMBL5537119 (Eur J Med Chem, 2024) can be followed below.

Assay [1] addresses Histone deacetylase 1 (Homo sapiens, UniProt Q13547). Kind of assay: Inhibition of HDAC1 (unknown origin).
Assay [2] deals with T1, Histone deacetylase 8 (Homo sapiens, UniProt Q9BY41).
T1 sequence (Q9BY41 whole entry): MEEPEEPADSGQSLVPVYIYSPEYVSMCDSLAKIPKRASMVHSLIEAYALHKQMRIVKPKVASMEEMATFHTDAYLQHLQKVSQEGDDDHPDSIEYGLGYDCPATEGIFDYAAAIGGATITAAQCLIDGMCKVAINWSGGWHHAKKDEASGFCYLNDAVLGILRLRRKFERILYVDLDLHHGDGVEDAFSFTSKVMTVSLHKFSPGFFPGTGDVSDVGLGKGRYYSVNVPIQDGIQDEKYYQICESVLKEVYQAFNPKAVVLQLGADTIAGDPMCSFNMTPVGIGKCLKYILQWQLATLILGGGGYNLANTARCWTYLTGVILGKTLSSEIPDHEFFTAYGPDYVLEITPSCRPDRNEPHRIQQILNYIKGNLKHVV
Description: Inhibition of human recombinant HDAC8 using Boc-Lys-(Tfa)-AMC as substrate preincubated for 5 mins followed by substrate addition and measured after 90 mins by fluorescence based microplate reader analysis.

In assay [3] the target is Histone deacetylase 5 (Homo sapiens, UniProt Q9UQL6). Kind of assay: Inhibition of HDAC5 (unknown origin).
Sequence of Histone deacetylase 5 (Q9UQL6 whole entry): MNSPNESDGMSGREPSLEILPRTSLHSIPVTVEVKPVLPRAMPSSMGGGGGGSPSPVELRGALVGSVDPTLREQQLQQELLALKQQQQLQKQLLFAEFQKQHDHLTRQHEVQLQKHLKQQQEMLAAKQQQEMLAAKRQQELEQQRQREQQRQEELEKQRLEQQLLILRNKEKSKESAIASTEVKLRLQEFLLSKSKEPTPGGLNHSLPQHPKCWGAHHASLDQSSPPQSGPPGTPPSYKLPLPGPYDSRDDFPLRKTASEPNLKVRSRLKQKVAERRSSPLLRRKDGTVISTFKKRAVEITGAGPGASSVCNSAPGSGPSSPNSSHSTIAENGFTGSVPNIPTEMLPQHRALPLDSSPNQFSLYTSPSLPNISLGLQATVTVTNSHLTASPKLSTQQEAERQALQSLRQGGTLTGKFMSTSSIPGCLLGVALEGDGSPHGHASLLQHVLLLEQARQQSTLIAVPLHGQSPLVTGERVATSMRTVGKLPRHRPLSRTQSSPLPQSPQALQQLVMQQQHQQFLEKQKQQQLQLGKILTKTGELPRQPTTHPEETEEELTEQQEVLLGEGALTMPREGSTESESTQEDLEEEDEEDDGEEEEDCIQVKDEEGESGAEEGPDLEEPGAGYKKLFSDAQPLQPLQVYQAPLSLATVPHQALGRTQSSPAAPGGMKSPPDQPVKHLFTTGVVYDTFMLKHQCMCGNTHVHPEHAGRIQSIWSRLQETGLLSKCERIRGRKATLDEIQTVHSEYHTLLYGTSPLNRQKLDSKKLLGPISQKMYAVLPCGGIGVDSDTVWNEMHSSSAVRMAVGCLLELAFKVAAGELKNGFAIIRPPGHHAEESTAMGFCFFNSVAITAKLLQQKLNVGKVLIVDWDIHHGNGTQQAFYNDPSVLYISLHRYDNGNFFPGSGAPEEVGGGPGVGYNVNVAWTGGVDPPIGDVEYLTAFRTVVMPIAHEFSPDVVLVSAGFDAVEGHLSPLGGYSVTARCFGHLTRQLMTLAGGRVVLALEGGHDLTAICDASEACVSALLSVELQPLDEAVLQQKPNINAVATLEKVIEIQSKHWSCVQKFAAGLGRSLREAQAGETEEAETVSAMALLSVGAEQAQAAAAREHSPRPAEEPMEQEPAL
Assay [4] is described as follows: Inhibition of Class I/IIb HDAC in human THP-1 cells preincubated for 18 hrs followed by substrate addition and measured after 3 hrs by fluorescence based microplate reader assay. Type of assay: cell-based.
The target in assay [5] is Histone deacetylase 2 (Homo sapiens, UniProt Q92769). Kind of assay: Inhibition of human recombinant HDAC2 using Boc-Lys(Ac)-AMC as substrate preincubated for 5 mins followed by substrate addition and measured after 90 mins by fluorescence based microplate reader analysis.
Sequence of Histone deacetylase 2 (Q92769 whole entry): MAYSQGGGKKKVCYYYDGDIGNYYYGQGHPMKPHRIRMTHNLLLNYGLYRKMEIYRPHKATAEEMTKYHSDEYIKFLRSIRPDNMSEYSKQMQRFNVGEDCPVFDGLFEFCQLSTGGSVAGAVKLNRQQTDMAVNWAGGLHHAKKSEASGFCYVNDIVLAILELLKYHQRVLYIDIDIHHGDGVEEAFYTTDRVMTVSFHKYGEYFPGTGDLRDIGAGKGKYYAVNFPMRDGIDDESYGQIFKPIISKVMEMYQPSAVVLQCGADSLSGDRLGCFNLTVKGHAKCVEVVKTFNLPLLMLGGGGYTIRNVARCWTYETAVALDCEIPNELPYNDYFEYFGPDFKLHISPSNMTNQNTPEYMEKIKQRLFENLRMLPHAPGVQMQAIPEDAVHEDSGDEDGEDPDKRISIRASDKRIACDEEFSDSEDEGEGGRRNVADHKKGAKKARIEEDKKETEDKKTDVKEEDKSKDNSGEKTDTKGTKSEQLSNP
Assay [6] has as its target T2, Histone deacetylase 11 (Homo sapiens, UniProt Q96DB2).
T2 sequence (Q96DB2 whole entry): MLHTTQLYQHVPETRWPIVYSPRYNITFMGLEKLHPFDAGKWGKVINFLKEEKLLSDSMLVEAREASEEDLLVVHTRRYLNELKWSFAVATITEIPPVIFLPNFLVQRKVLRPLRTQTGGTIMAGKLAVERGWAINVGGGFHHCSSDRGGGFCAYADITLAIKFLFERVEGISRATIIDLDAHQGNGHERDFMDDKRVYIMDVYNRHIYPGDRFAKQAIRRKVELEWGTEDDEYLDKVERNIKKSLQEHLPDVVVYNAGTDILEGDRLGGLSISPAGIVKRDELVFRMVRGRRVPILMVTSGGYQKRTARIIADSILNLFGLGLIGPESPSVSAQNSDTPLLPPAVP
Kind of assay: Inhibition of HDAC11 (unknown origin).

Assay [7] concerns THP-1. Description: Antiproliferative activity against human THP-1 cells assessed as reduction in cell viability at 100 uM incubated for 72 hrs by MTT assay relative to control. Format: functional. For orientation: Tetrazolium assays rely on reduction of a dye to a coloured formazan, in cell work by metabolically active cells.
Assay [8] addresses T3, Protein deacetylase HDAC6 (Homo sapiens, UniProt Q9UBN7).
T3 sequence (Q9UBN7 whole entry): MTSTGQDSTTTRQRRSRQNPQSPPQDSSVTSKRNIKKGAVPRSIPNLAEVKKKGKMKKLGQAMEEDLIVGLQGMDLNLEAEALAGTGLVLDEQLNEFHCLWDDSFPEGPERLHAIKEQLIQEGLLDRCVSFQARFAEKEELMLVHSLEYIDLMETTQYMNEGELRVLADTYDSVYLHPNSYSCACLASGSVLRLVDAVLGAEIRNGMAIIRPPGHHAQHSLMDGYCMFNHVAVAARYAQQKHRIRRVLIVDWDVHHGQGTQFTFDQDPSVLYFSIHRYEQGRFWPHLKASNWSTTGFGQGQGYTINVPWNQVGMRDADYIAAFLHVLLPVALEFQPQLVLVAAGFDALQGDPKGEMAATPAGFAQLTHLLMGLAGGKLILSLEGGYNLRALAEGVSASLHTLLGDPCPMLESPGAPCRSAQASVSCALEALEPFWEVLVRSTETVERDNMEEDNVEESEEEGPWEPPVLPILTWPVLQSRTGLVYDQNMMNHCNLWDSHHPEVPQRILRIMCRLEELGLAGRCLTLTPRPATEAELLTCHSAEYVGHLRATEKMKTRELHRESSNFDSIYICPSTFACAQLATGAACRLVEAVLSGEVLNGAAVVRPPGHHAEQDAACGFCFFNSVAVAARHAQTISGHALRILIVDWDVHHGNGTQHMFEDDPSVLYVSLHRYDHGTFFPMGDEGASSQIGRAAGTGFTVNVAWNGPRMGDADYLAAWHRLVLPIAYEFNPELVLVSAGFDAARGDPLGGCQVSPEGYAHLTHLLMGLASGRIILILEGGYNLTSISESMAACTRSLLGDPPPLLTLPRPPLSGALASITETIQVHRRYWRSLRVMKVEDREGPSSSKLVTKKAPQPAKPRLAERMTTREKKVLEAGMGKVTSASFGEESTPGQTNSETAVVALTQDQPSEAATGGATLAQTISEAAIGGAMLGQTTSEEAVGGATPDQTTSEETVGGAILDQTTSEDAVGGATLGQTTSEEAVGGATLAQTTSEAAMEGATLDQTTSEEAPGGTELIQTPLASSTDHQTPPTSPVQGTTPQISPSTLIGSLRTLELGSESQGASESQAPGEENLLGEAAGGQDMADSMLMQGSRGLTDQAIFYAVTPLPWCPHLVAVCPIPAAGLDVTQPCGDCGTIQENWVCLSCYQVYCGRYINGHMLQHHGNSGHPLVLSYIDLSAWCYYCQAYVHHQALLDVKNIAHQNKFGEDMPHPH
Kind of assay: Inhibition of human recombinant HDAC6 using Boc-Lys(Ac)-AMC as substrate preincubated for 5 mins followed by substrate addition and measured after 90 mins by fluorescence based microplate reader analysis.

Assay [9] concerns THP-1. Description: Inhibition of Class IIa/8 HDAC in human THP-1 cells at 100 uM preincubated for 18 hrs followed by substrate addition and measured after 3 hrs by fluorescence based microplate reader assay relative to control. Type of assay: cell-based. The settings on record: time 21.0 hrs, values are per cent of control.
Assay [10] concerns the target Histone deacetylase 3 (Homo sapiens, UniProt O15379). Description: Inhibition of HDAC3 (unknown origin).
Assay [11] in a line: Inhibition of Class IIa/8 HDAC in human THP-1 cells preincubated for 18 hrs followed by substrate addition and measured after 3 hrs by fluorescence based microplate reader assay. Type of assay: cell-based.
In assay [12] the target is Histone deacetylase 4 (Homo sapiens, UniProt P56524). Kind of assay: Inhibition of human recombinant TEV-8His-tagged HDAC4 (648 to 1057 residues) expressed in Escherichia coli (DE3) Rosetta cells using Boc-Lys-(Tfa)-AMC as substrate preincubated for 5 mins followed by substrate addition and measured after 90 mins by fluorescence based microplate reader analysis.
Sequence of Histone deacetylase 4 (P56524 whole entry, the tested form may be a part): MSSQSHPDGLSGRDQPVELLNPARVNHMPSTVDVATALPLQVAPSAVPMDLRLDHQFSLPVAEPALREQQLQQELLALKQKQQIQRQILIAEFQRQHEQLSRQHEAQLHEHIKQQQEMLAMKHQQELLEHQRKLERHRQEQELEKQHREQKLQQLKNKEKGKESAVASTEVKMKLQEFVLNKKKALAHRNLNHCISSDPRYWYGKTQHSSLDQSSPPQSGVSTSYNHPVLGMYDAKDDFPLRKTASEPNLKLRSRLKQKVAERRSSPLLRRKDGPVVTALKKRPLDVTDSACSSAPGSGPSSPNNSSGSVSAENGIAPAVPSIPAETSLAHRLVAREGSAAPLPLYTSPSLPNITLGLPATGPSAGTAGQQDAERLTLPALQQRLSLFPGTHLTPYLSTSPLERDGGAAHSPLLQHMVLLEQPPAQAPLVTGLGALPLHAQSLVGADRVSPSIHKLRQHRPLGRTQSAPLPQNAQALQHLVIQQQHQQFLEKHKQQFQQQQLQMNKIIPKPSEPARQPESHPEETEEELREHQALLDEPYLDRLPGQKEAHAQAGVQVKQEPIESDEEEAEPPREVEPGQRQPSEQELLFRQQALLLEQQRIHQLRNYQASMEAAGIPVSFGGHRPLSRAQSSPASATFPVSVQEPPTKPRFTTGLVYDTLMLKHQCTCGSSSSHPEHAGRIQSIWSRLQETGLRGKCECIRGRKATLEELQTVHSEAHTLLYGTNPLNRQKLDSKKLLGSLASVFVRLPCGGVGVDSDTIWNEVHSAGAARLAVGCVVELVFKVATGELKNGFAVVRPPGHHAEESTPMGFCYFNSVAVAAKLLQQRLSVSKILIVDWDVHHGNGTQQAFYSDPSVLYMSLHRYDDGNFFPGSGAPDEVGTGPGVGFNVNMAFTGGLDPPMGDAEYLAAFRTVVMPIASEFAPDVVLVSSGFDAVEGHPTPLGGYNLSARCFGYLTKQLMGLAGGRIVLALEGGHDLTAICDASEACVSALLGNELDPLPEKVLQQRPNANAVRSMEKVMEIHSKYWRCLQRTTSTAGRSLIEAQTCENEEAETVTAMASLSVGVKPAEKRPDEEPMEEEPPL
In assay [13] the test system is THP-1. Description: cells. The note with it: Homo sapiens, THP-1, 72 h.
Description: Antiproliferative activity against human THP-1 cells assessed as inhibition of cell growth incubated for 72 hrs by MTT assay
The test system of assay [14] is THP-1. Kind of assay: Inhibition of Class I/IIb HDAC in human THP-1 cells at 100 uM preincubated for 18 hrs followed by substrate addition and measured after 3 hrs by fluorescence based microplate reader assay relative to control. Type of assay: cell-based. The note with it: time 21.0 hrs.
Assay [15] has as its system CAL-27. Kind of assay: Antiproliferative activity against human CAL-27 cells without HDAC4 expression assessed as inhibition of cell growth incubated for 72 hrs by MTT assay. Format: functional, cell-based. The settings on record: CAL-27, 72 h.
Assay [16] relates to CAL-27. Description: Antiproliferative activity against human CAL-27 cells overexpressing HDAC4 assessed as inhibition of cell growth incubated for 72 hrs by MTT assay. Type of assay: functional, cell-based. The note with it: CAL-27, 72 h.

Sequence of Histone deacetylase 3 (O15379 whole entry): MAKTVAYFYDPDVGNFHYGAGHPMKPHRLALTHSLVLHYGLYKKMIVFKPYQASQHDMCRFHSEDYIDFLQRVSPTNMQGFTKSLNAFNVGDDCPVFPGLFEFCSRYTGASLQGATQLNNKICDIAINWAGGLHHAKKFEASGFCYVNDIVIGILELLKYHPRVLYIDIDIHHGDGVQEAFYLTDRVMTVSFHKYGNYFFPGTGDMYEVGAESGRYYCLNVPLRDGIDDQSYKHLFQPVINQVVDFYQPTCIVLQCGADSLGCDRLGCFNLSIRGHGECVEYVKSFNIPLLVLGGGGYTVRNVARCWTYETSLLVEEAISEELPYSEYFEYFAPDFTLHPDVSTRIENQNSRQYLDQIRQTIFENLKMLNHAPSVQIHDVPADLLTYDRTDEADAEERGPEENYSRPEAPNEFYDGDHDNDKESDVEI
Sequence of Histone deacetylase 1 (Q13547 whole entry): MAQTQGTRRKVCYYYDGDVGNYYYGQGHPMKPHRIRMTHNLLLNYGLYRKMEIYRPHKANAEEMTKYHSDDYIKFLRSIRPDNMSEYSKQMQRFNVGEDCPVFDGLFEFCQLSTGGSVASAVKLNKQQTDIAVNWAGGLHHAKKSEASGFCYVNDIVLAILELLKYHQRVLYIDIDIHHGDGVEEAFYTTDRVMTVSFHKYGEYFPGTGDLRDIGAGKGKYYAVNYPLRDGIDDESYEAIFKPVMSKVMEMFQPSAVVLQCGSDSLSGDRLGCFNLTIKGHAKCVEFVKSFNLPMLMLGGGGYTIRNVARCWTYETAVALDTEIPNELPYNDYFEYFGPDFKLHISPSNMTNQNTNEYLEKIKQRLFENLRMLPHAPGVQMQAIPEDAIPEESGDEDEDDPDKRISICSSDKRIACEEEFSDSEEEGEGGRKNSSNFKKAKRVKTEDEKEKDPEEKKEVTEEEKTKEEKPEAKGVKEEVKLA

For `CN(Cc1ccccc1)C(=O)c1ccc(-c2noc(C(F)(F)F)n2)cc1`, the half-inhibitory concentration (IC50) in assay [1] was 14.6 µM; in [2] it was above 100 µM; in [3], 0.154 µM; in assay [4] it was 29.1 µM; in assay [5], 8.13 µM; in [6] it was above 100 µM. Moreover, the IC50 in [8] was 2.03 µM; in assay [10], 6.86 µM; in assay [11] it was 0.54 µM; in assay [12], 0.025 µM; in [13] it was above 100 µM. In assay [7], the Activity worked out at 34%. Besides, in assay [9], the residual activity stood at 117%. In [14], this molecule had an inhibition of 78%.
As for `O=C(NCCc1c[nH]c2ccccc12)c1ccc(-c2noc(C(F)(F)F)n2)cc1`, the IC50 is above 100 µM in assay [2]; above 100 µM in [5]; above 100 µM in assay [8]; 14.5 µM in [11]; 0.69 µM in [12]; around 100 µM in assay [13]. In addition, the Activity in [7] amounted to 49%. Besides, in assay [9], the residual activity is 97%. This molecule also came in with an inhibition in assay [14] of 64%.
As to `O=C(NO)C(c1ccc(-c2ncc(C(F)(F)F)cn2)cc1)c1ccccc1F` (configuration not stated), the half-inhibitory concentration (IC50) in assay [15] worked out at 9.69 µM; in assay [16], 12.8 µM.
In the case of `O=C(Nc1cnc2ccccc2c1)c1ccc(-c2noc(C(F)(F)F)n2)cc1`, the IC50 is above 100 µM in assay [2]; above 100 µM in [4]; above 100 µM in assay [5]; above 100 µM in [8]; above 100 µM in assay [11]; 5.54 µM in [12]. The IC50 in assay [13] turned out to be 47.3 µM. Also, the Activity in [7] is 63%. The residual activity in assay [9] is 18%. The inhibition in [14] came out at 0%.
In the case of `Cc1[nH]c2ccccc2c1CCNCc1ccc(/C=C/C(=O)NO)cc1` [PANOBINOSTAT], the Activity in [7] came to 96%. In assay [13], this molecule had an IC50 of 0.001 µM.
Consider `CN1CCN(C(=O)c2ccc(-c3noc(C(F)(F)F)n3)cc2)CC1`, for which the 50% inhibitory concentration (IC50) in [2] is 16.1 µM; in assay [4], above 100 µM; in assay [5], 80 µM; in assay [8] it was 55.4 µM; in assay [11], 5.51 µM; in assay [12], 1.18 µM. In [13], the IC50 is above 100 µM. In addition, the Activity in assay [7] is on record as 39%. For the same molecule, the residual activity in assay [9] was 103%. This molecule came in with an inhibition in [14] of 23%.
`CCN(CC)CCCCNC(=O)c1ccc(-c2noc(C(F)(F)F)n2)cc1`: the IC50 in [2] was 6.72 µM; in assay [4], 13.7 µM; in [5] it was 25.4 µM; in assay [8] it was 5.61 µM; in assay [11], 1.17 µM; in [12] it was 0.139 µM. The molecule also had a half-maximal inhibitory concentration (IC50) in [13] of around 100 µM. The Activity in assay [7] is listed as 47%. The residual activity in assay [9] amounted to 102%. This molecule also returned an inhibition in assay [14] of 73%.
On to `CN(C(=O)c1ccc(-c2noc(C(F)(F)F)n2)cc1)c1ccccc1`, for which the half-inhibitory concentration (IC50) was 71.8 µM in assay [2]; above 100 µM in assay [4]; above 100 µM in [5]; 19.6 µM in [8]; 6.39 µM in assay [11]; 0.75 µM in [12]. In assay [13], the IC50 is above 100 µM. Further, the Activity in assay [7] is on record as 33%. In assay [9], the residual activity amounted to 118%. Moreover, the inhibition in assay [14] stood at 31%.
`O=C(CCCCCCC(=O)Nc1ccccc1)NO` [VORINOSTAT]: in assay [7], the Activity is on record as 97%.
Turning to `CCN(CC)CCN(C)C(=O)c1ccc(-c2noc(C(F)(F)F)n2)cc1`, the IC50 in assay [2] amounted to 10.8 µM; in [4], 14 µM; in assay [5], 34.8 µM; in [8], 16.9 µM; in assay [11], 1.27 µM; in [12] it was 0.198 µM. In assay [13], this molecule registered a half-inhibitory concentration (IC50) above 100 µM. In addition, the Activity in [7] is 31%. In addition, the residual activity in assay [9] came out at 98%. Besides, the inhibition in assay [14] worked out at 65%.
For the molecule `O=C(NOCCN1CCOCC1)c1ccc(-c2noc(C(F)(F)F)n2)cc1`, the IC50 in [1] was 2.21 µM; in assay [2] it was 7.13 µM; in assay [3] it was 0.151 µM; in assay [4], above 100 µM; in assay [5] it was 9.77 µM; in assay [6], above 100 µM. Moreover, the half-maximal inhibitory concentration (IC50) in [8] is 18.1 µM; in [10], 2.36 µM; in [11], 0.429 µM; in assay [12] it was 0.141 µM; in assay [13], around 100 µM. Moreover, in [7], the Activity was 47%. Also, the residual activity in assay [9] worked out at 100%. Further, the inhibition in [14] stood at 41%.
Turning to `CN(C)c1ccc(CNC(=O)c2ccc(-c3noc(C(F)(F)F)n3)cc2)cc1`, the IC50 in assay [2] was above 100 µM; in assay [4], above 100 µM; in assay [5], above 100 µM; in [8] it was above 100 µM; in [11], 5.51 µM; in assay [12] it was 0.94 µM. This molecule also registered an IC50 in assay [13] of around 100 µM. Further, the Activity in [7] was 49%. Besides, in [9], the residual activity was determined as 103%. Moreover, in assay [14], the inhibition stood at 25%.

As a reminder, the IC50 is the concentration that gives 50% inhibition. In general, residual activity refers to the signal under treatment as a percentage of the control signal. In general, inhibition refers to the change of the read-out against control, counted positive when it falls. Read a low inhibition as a response near the control.
